Experimental data as given in patent US11224565B2, “N-acyldipeptide derivatives and their uses” (NeoStrata Company, Inc., priority 2011, dated 2022).
Peptide text beside a SMILES is read from it.

Legend:
Type in all cases: in vivo, human
[1] = test system: inflammation, dermatitis, or eczema lesions; experiment: Topical application to chronic inflammation, dermatitis, eczema or allergic skin lesions, clinical evaluation; settings: for skin color of treated skin compared to surrounding untreated skin: 4 weeks, 0.5% N-Ac-L-Tyr-L-Tyr-NH2 solution or 0.4% N-Ac-L-Val-L-Ala-NH2 in WEP442
Text: In another embodiment, the volunteer subject topically applied the test compositions containing N-acyldipeptide derivatives of the present invention on involved skin or lesions once or twice daily for several weeks or until the involved lesions completely cleared and clinically changed to normal skin. As a control study, the subject also topically applied a vehicle control composition on the involved skin or lesions twice daily for the same period.

Disturbed keratinization = experiment: Summary of test results in volunteer subjects: disturbed keratinization; settings: efficacy grade
Outline: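 Volunteers applied N-acyldipeptide derivatives dissolved in water/ethanol/propylene glycol 40:40:20, ethanol/propylene glycol 80:20, or water/propylene glycol 80:20 mixed into oil-in-water cream, on involved skin once or twice daily for several weeks or until clearing. Vehicle applied twice daily as control; disturbed keratinization lesions assessed clinically.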

[2] = test system: Aging related changes of skin, nail and hair; experiment: Summary of test results in volunteer subjects: aging related changes; settings: efficacy grade
[3] = test system: Deranged immune disorders and inflammation; experiment: Summary of test results in volunteer subjects: deranged immune disorders and inflammation; settings: efficacy grade
Outline: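 Volunteers applied N-acyldipeptide derivatives topically once or twice daily for several weeks or until lesions cleared. Compounds were dissolved in water/ethanol/propylene glycol (40:40:20) or ethanol/propylene glycol (80:20), or in water/propylene glycol (80:20) mixed into an oil-in-water cream. Vehicle control applied twice daily.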

Nerve disorders = experiment: Summary of test results in volunteer subjects: nerve disorders; settings: efficacy grade
Outline: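 Volunteers applied N-acyldipeptide derivatives dissolved in water/ethanol/propylene glycol (40:40:20), ethanol/propylene glycol (80:20), or water/propylene glycol (80:20) mixed into cream, once or twice daily for several weeks or until lesions cleared. Vehicle control applied twice daily; application also over arthritic joints or painful muscles.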

[4] = chronic eczema right leg, twice daily
[5] = chronic eczema right leg, twice daily, 0.5% (w/v) N-Ac-L-Tyr-L-Tyr-NH2 solution pH 6.7 on one lesion, 0.4% (w/v) N-Ac-L-Val-L-Ala-NH2 in WEP442 pH 5.8 on second
[6] = chronic eczema of legs, twice daily, 2% (w/v) N-Ac-L-Val-L-Ala-NH2 cream on one leg, 0.5% (w/w) N-Ac-L-Tyr-L-Tyr-NHNHAc in WEP442 pH 5.5 on the other

| SMILES | skin color of treated skin compared to surrounding untreated skin [1, 4] | itch after topical application [1, 5] | DK (Disturbed keratinization) | AG [2] | DI [3] | ND (Nerve disorders) | itch after topical application ([1]; 0.5% (w/w) cream twice daily, skin allergy from shellfish with reddish papules) | improvement as judged by clinical evaluation ([1]; 0.5% (w/w) cream twice daily, skin allergy from shellfish, end of 5 days) | itch after topical application [1, 6] | improvement as judged by clinical evaluation ([1]; chronic eczema, twice daily, two weeks, 0.6% (w/w) N-Ac-L-Tyr-L-Tyr-NHNH2 cream on one set of lesions, 0.7% (w/w) N-Ac-L-Tyr-L-Tyr-NHNHAc cream on another) | itch after topical application ([1]; chronic eczema, twice daily, 0.6% (w/w) N-Ac-L-Tyr-L-Tyr-NHNH2 cream on one set of lesions, 0.7% (w/w) N-Ac-L-Tyr-L-Tyr-NHNHAc cream on another) |
| --- | --- | --- | --- | --- | --- | --- | --- | --- | --- | --- | --- |
| CC(=O)N[C@@H](Cc1ccc(O)cc1)C(=O)N[C@@H](Cc1ccc(O)cc1)C(N)=O [N-Ac-L-Tyr-L-Tyr-NH2] (Ac-Tyr-Tyr-NH2) | much lighter in skin color | stopped within a few minutes | 4+ (4+: 95-100% Efficacy) | 4+ (4+: 95-100% Efficacy) | 4+ (4+: 95-100% Efficacy) | 4+ (4+: 95-100% Efficacy) |  |  |  |  |  |
| CC(=O)N[C@H](C(=O)N[C@@H](C)C(N)=O)C(C)C [N-Ac-L-Val-L-Ala-NH2] (Ac-Val-Ala-NH2) | much lighter in skin color | stopped within a few minutes | 4+ (4+: 95-100% Efficacy) | 4+ (4+: 95-100% Efficacy) | 4+ (4+: 95-100% Efficacy) | 4+ (4+: 95-100% Efficacy) | stopped within a few minutes | 75% | stopped within a few minutes |  |  |
| CC(=O)NNC(=O)[C@H](Cc1ccc(O)cc1)NC(=O)[C@H](Cc1ccc(O)cc1)NC(C)=O [N-Ac-L-Tyr-L-Tyr-NHNHAc] |  |  | 4+ (4+: 95-100% Efficacy) | 3+ (3+: 75% Efficacy) | 4+ (4+: 95-100% Efficacy) | 4+ (4+: 95-100% Efficacy) |  |  | stopped within a few minutes | 100% | stopped immediately |
